As a reminder, the Ki is a measure of affinity in units of concentration, obtained from inhibition or displacement.

The values that follow come from ChEMBL document CHEMBL3638560, “Picolinamido-propanoic acid derivatives useful as glucagon receptor antagonists” (2014).

In the assay the target is Glucagon receptor (Homo sapiens, UniProt P47871). Briefly: Binding Assay: The binding assay was performed by a filtration method in a 384 well format. Membranes at a final protein concentration of 6 μg/well were incubated with 125I-glucagon at 0.3 nM and in the presence of compound for 2 hours at room temperature in a total reaction volume of 40 μL per well. Assay buffer consisted of 50 mM HEPES, pH 7.4, 5 mM MgCl2, 1 mM CaCl2 and 0.2% BSA. 30 μL of the reaction was then transferred to PEI treated filter plates and followed by filter aspiration. Plates were then washed 5x and allowed to dry at room temperature overnight. The next day the bottom of the plate was covered with seal tape and scintillant was added. Total counts retained by the filters were quantified with a Top Count instrument.
Chain of Glucagon receptor (P47871 whole entry): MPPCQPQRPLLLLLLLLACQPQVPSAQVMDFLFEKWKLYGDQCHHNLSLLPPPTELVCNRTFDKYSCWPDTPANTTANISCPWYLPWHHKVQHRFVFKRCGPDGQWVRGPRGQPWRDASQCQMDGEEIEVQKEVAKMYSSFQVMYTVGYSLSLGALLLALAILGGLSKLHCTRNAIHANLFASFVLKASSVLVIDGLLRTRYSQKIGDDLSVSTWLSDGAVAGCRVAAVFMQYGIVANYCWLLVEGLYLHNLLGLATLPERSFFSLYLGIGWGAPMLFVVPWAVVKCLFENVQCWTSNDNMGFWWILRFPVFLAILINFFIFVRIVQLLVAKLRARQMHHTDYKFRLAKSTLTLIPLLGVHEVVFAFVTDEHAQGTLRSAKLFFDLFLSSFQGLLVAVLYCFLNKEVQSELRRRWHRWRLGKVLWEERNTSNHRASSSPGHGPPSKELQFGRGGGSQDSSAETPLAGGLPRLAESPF

For `O=C(O)CCNC(=O)c1ccc(-c2cc(C(F)(F)F)ccc2CNc2ccc(-c3ccc(Cl)cc3C(F)(F)F)cc2)cn1`, the Ki was determined as 47 nM.
